Columns and labels:
[1] = target: T1, glucocorticoid receptors (Homo sapiens, UniProt P04150); assay: GR functional assay using SW1353/MMTV-5 cells (dexamethasone-induced luciferase); assay type: cell-based; design: contains endogenous glucocorticoid receptors; endogenous in cells; host or cells: SW1353/MMTV-5 (human chondrosarcoma, stably carrying the pMAMneo-Luc reporter); details: read-out: GR Functional
T1 sequence (P04150 1-777): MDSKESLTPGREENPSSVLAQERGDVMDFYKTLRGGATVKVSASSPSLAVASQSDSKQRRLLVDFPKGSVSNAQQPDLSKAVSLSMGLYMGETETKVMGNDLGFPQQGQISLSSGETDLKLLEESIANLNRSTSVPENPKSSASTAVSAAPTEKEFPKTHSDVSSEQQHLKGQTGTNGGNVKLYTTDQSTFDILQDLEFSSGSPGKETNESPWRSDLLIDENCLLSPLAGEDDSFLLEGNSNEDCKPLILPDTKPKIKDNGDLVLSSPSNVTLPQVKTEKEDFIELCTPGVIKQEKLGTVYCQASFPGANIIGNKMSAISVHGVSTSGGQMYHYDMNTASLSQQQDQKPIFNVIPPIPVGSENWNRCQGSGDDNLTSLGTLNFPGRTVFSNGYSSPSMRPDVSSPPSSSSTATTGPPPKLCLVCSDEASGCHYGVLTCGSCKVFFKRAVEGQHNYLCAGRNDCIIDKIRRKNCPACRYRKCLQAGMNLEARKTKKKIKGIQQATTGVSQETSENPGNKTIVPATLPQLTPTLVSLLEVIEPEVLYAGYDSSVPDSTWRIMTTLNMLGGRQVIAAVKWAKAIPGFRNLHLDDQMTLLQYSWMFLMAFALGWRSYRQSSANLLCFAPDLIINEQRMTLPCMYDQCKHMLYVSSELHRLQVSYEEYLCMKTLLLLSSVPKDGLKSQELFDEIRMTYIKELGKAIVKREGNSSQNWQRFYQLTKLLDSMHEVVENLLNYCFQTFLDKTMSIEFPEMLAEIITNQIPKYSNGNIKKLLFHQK
Protocol: SW1353/MMTV-5 is an adherent human chondrosarcoma cell line that contains endogenous glucocorticoid receptors. It was transfected with a plasmid (pMAMneo-Luc) encoding firefly luciferase located behind a glucocorticoid-responsive element (GRE) derived from a viral promoter (long terminal repeat of mouse mammary tumor virus). A stable cell line SW1353/MMTV-5 was selected with geneticin, which was required to maintain this plasmid.
SW1353/MMTV-5 cells were distributed in 96-well plates and incubated in medium (without geneticin) for 24 hrs (in the absence of CO2).

[2] = target: T1, glucocorticoid receptors; assay: Glucocorticoid receptor binding displacement assay with 3H-dexamethasone; design: This GR was a full-length steroid hormone receptor; host or cells: recombinant baculovirus-infected insect cells; details: Ki from IC50 by Cheng-Prusoff; 2.5 nM 3H-dexamethasone; read-out: GR Binding
Protocol: The source of the receptor was recombinant baculovirus-infected insect cells. This GR was a full-length steroid hormone receptor likely to be associated with heat-shock and other endogenous proteins.
For the Primary Screen, test compounds were tested at 1 μM in duplicate. These compounds were diluted from 10 mM stock in 100% DMSO. After dilution to 100 μM, 5 μl were added to 245 μl assay buffer to obtained 2 μM compound and 2% DMSO.
For the IC50 determinations, test compounds were tested at 6 concentrations in duplicate (concentration range depends on % inhibition binding that was obtained in the Primary Screen). Test compounds were diluted from 10 mM stock in 100% DMSO. The tested solutions were prepared at 2× final assay concentration in 2% DMSO/assay buffer.
All reagents and the assay plate were kept on ice during the addition of reagents. […] After the additions, the incubation mixture was mixed and incubated for 2.5 hrs at 4° C.
After 2.5 hrs incubation, unbound counts were removed with dextran coated charcoal (DCC) as follows: 25 μl of DCC solution (10% DCC in assay buffer) was added to all wells and mixed (total volume 225 μl). The plate was centrifuged at 4000 rpm for 10 minutes at 4° C. 75 μl of the supernatants (i.e.⅓ of total volume) was carefully pipetted into an optiplate. 200 μl of scintillation cocktail were added (Microscint-40, Packard Bioscience. B.V.). The plate was vigorously shaken for approx. 10 minutes and counted on Topcount.
The IC50 values were converted to Ki (the inhibition constant) using the Cheng-Prusoff equation.
Reagents: Assay buffer: 10 mM potassium phosphate buffer pH 7.6 containing 5 mM DTT, 10 mM sodium molybdate, 100 μM EDTA and 0.1% BSA.

| Compound | Ki [1] | Ki [2] |
| --- | --- | --- |
| C[C@]12Cc3cnn(-c4ccc(F)cc4)c3C=C1CCN(S(=O)(=O)N1CCCCC1)C2 | > 100 nM | 10 to 100 nM |
| CC(C)(C)c1ccc(S(=O)(=O)N2CCC3=Cc4c(cnn4-c4ccncc4)C[C@]3(C)C2)cc1 | > 100 nM | < 10 nM |
| C[C@]12Cc3cnn(-c4ccc(F)cc4)c3C=C1CCN(S(=O)(=O)c1ccc(N)cc1)C2 | > 100 nM | 10 to 100 nM |
| CC(C)(C)S(=O)(=O)N1CCC2=Cc3c(cnn3-c3ccc(F)cc3)C[C@]2(C)C1 | > 100 nM | > 100 nM |
| CC(C)n1ncc2c1C=C1CCN(S(=O)(=O)c3ccc(C(C)(C)C)cc3)C[C@@]1(CN(C)C)C2 | > 100 nM | 10 to 100 nM |
| CC(C)n1ncc2c1C=C1CCN(S(=O)(=O)c3ccc(C(C)(C)C)cc3)C[C@@]1(CN1CCCCC1)C2 | 10 to 100 nM | < 10 nM |
| Cc1ccccc1S(=O)(=O)N1CCC2=Cc3c(cnn3-c3ccc(F)cc3)C[C@]2(CN2CCOCC2)C1 | 10 to 100 nM | < 10 nM |
| O=S(=O)(c1ccccc1F)N1CCC2=Cc3c(cnn3-c3ccc(F)cc3)C[C@]2(CN2CCOCC2)C1 | 10 to 100 nM | < 10 nM |
| CC(C)(C)c1ccc(S(=O)(=O)N2CC[C@H]3Cc4c(cnn4-c4ccc(F)cc4)C[C@]3(CO)C2)cc1 | > 100 nM | > 100 nM |
| COC[C@]12Cc3cnn(-c4ccc(F)cc4)c3C[C@@H]1CCN(S(=O)(=O)c1ccc(C(C)(C)C)cc1)C2 | > 100 nM | < 10 nM |
| COCCOC[C@]12Cc3cnn(-c4ccc(F)cc4)c3C[C@@H]1CCN(S(=O)(=O)c1ccc(C(C)(C)C)cc1)C2 | < 10 nM | < 10 nM |
| COCCOC[C@]12Cc3cnn(-c4ccc(F)cc4)c3C[C@@H]1CCN(S(=O)(=O)c1ccccc1)C2 | 10 to 100 nM | < 10 nM |
| COC[C@]12Cc3cnn(-c4ccc(F)cc4)c3C[C@@H]1CCN(S(=O)(=O)c1ccccc1)C2 | > 100 nM | 10 to 100 nM |
| CC(C)(C)c1ccc(S(=O)(=O)N2CCC3=Cc4c(cnn4-c4ccc(F)cc4)C[C@]3(C(=O)NCc3ccccc3)C2)cc1 | > 100 nM | 10 to 100 nM |
| CC(C)(C)c1ccc(S(=O)(=O)N2CCC3=Cc4c(cnn4-c4ccc(F)cc4)C[C@]3(C(=O)N3CCOCC3)C2)cc1 | > 100 nM | 10 to 100 nM |
| CC(C)(C)c1ccc(S(=O)(=O)N2CCC3=Cc4c(cnn4-c4ccc(F)cc4)C[C@]3(C(=O)N3CCCCC3)C2)cc1 | > 100 nM | < 10 nM |
| CC(C)(C)c1ccc(S(=O)(=O)N2CCC3=Cc4c(cnn4-c4ccc(F)cc4)C[C@]3(C(=O)N3CCCC3)C2)cc1 | 10 to 100 nM | < 10 nM |
| CCNC(=O)[C@]12Cc3cnn(-c4ccc(F)cc4)c3C=C1CCN(S(=O)(=O)c1ccc(C(C)(C)C)cc1)C2 | > 100 nM | < 10 nM |
| CN(C)C(=O)[C@]12Cc3cnn(-c4ccc(F)cc4)c3C=C1CCN(S(=O)(=O)c1ccc(C(C)(C)C)cc1)C2 | > 100 nM | 10 to 100 nM |
| CC(O)[C@]12Cc3cnn(-c4ccc(F)cc4)c3C=C1CCN(S(=O)(=O)c1ccc(C(C)(C)C)cc1)C2 (stereo partly shown) | 10 to 100 nM | < 10 nM |
| CCC(O)[C@]12Cc3cnn(-c4ccc(F)cc4)c3C=C1CCN(S(=O)(=O)c1ccc(C(C)(C)C)cc1)C2 (stereo partly shown) | 10 to 100 nM | < 10 nM |
| CC(C)(C)c1ccc(S(=O)(=O)N2CCC3=Cc4c(cnn4-c4ccc(F)cc4)C[C@]3(C(O)c3ccccc3)C2)cc1 (stereo partly shown) | > 100 nM | 10 to 100 nM |
| CC(C)(C)c1ccc(S(=O)(=O)N2CCC3=Cc4c(cnn4-c4ccc(F)cc4)C[C@]3(C(=O)c3ccccc3)C2)cc1 | < 10 nM | < 10 nM |
| CCCCn1ncc2c1C=C1CCN(S(=O)(=O)c3ccc(C)cc3)C[C@@]1(C(=O)OC)C2 | > 100 nM | > 100 nM |

| Compound | Ki [1] | Ki [2] |
| --- | --- | --- |
| COC(=O)C[C@]12Cc3cnn(-c4ccc(F)cc4)c3C=C1CCN(S(=O)(=O)c1ccc(C(C)(C)C)cc1)C2 | 10 to 100 nM | < 10 nM |
| CC(C)(C)c1ccc(S(=O)(=O)N2CCC3=Cc4c(cnn4-c4ccc(F)cc4)C[C@]3(CCO)C2)cc1 | 10 to 100 nM | < 10 nM |
| COCC[C@]12Cc3cnn(-c4ccc(F)cc4)c3C=C1CCN(S(=O)(=O)c1ccc(C(C)(C)C)cc1)C2 | < 10 nM | < 10 nM |
| CN(C)CC[C@]12Cc3cnn(-c4ccc(F)cc4)c3C=C1CCN(S(=O)(=O)c1ccc(C(C)(C)C)cc1)C2 | 10 to 100 nM | 10 to 100 nM |
| CC(C)(C)c1ccc(S(=O)(=O)N2CCC3=Cc4c(cnn4-c4ccc(F)cc4)C[C@]3(CCN3CCCC3)C2)cc1 | 10 to 100 nM | 10 to 100 nM |
| CC(C)(C)c1ccc(S(=O)(=O)N2CC[C@H]3Cc4c(cnn4-c4ccc(F)cc4)C[C@]3(CN3CCOCC3)C2)cc1 | 10 to 100 nM | < 10 nM |
| O=S(=O)(c1ccccc1)N1CCC2=Cc3c(cnn3-c3ccc(F)cc3)CC2(Cc2ccc(F)cc2)C1 (stereo not shown) | 10 to 100 nM | < 10 nM |
| Cc1ccc(S(=O)(=O)N2CCC3=Cc4c(cnn4-c4ccc(F)cc4)CC3(Cc3ccc(F)cc3)C2)cc1 (stereo not shown) | 10 to 100 nM | < 10 nM |
| O=S(=O)(c1ccc(F)cc1)N1CCC2=Cc3c(cnn3-c3ccc(F)cc3)CC2(Cc2ccc(F)cc2)C1 (stereo not shown) | 10 to 100 nM | < 10 nM |
| CS(=O)(=O)N1CCC2=Cc3c(cnn3-c3ccc(F)cc3)CC2(Cc2ccc(F)cc2)C1 (stereo not shown) | > 100 nM | 10 to 100 nM |
| CC(C)S(=O)(=O)N1CCC2=Cc3c(cnn3-c3ccc(F)cc3)CC2(Cc2ccccc2)C1 (stereo not shown) | > 100 nM | > 100 nM |
| Cn1cnc(S(=O)(=O)N2CCC3=Cc4c(cnn4-c4ccc(F)cc4)CC3(Cc3ccc(F)cc3)C2)c1 (stereo not shown) | > 100 nM | < 10 nM |
| CN1CCOc2cc(S(=O)(=O)N3CCC4=Cc5c(cnn5-c5ccc(F)cc5)CC4(Cc4ccc(F)cc4)C3)ccc21 (stereo not shown) | < 10 nM | < 10 nM |
| O=S(=O)(c1ccc(N2CCOCC2)nc1)N1CCC2=Cc3c(cnn3-c3ccc(F)cc3)CC2(Cc2ccc(F)cc2)C1 (stereo not shown) | 10 to 100 nM | < 10 nM |
| CC(C)(C)c1ccc(CN2CCC3=Cc4c(cnn4-c4ccc(F)cc4)CC3(Cc3ccc(F)cc3)C2)cn1 (stereo not shown) | > 100 nM | < 10 nM |
| CCCN1CCC2=Cc3c(cnn3-c3ccc(F)cc3)CC2(Cc2ccc(F)cc2)C1 (stereo not shown) | > 100 nM | 10 to 100 nM |
| Fc1ccc(-n2ncc3c2C=C2CCN(Cc4c[nH]cn4)CC2(Cc2ccccc2)C3)cc1 (stereo not shown) | > 100 nM | > 100 nM |
| Fc1ccc(-n2ncc3c2C=C2CCN(Cc4ccncc4)CC2(Cc2ccccc2)C3)cc1 (stereo not shown) | > 100 nM | 10 to 100 nM |
| O=C(Nc1ccccc1)N1CCC2=Cc3c(cnn3-c3ccc(F)cc3)CC2(Cc2ccc(F)cc2)C1 (stereo not shown) | 10 to 100 nM | < 10 nM |
| CN1CCN(S(=O)(=O)N2CCC3=Cc4c(cnn4-c4ccc(F)cc4)CC3(Cc3ccc(F)cc3)C2)CC1 (stereo not shown) | > 100 nM | 10 to 100 nM |
| O=S(=O)(N1CCCCC1)N1CCC2=Cc3c(cnn3-c3ccc(F)cc3)CC2(Cc2ccc(F)cc2)C1 (stereo not shown) | > 100 nM | 10 to 100 nM |
| CN(C)C(=O)CN1CCC2=Cc3c(cnn3-c3ccc(F)cc3)CC2(Cc2ccccc2)C1 (stereo not shown) | > 100 nM | > 100 nM |
| COCCOC[C@]12Cc3cnn(C4CCCC4)c3C=C1CCN(S(=O)(=O)c1ccc(C)cc1)C2 | 10 to 100 nM | < 10 nM |
